These results are taken from patent US20260184691A1, “INHIBITORS AND DEGRADERS OF PIP4K PROTEIN” (Larkspur Biosciences, Inc., priority 2022, published 2026).

A value given as a limit tells only on which side of the number the result lay.

In the assay the target is T1, endogenous PIP4K2C C-terminally tagged with HiBiT peptide in MOLT-4 cells (Homo sapiens, UniProt Q8TBX8).
T1 construct: to C-terminally tag endogenous PIP4K2C with HiBiT peptide; host or cells: MOLT-4 (CRISPR-Cas9 knock-in clone)
T1 sequence (Q8TBX8 1-421): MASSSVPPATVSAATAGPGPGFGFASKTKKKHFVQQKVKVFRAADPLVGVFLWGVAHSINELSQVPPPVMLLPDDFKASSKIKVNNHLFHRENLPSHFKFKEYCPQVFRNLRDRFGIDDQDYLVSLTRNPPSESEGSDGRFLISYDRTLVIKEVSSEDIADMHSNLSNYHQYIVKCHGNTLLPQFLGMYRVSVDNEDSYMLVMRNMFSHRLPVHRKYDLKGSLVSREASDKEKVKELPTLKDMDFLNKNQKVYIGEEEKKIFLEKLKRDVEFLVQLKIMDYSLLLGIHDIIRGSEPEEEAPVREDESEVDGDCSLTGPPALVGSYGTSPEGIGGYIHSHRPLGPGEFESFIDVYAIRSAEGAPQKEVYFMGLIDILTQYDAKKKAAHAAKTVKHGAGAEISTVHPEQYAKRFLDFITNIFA
Briefly: HiBiT PIP4K2C degradation assay in MOLT-4 cells. It is filed as cell-based. To be noted: 24 hours, 10-point dose response, top concentration 10 micromolar, read-out: HiBIT-degradation MOLT4 PIP4k2C 24 hours DC50. The essentials: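 Cells bearing C-terminal HiBiT knock-in were exposed to a 10-point, 3-fold dilution series (top 10 micromolar, duplicate) for 24 h at 37C, 5% CO2. Remaining tagged protein read by lytic HiBiT luminescence; DC50 from Hill-equation fit.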
(In general: The HiBiT peptide binds its large partner to form an active luciferase.)
One may read the DC50 as the concentration at which degradation of the target reaches its halfway point. Regarding `O=C(COc1ccc2c3c(cccc13)C(=O)N2C1CCC(=O)NC1=O)NCCCCCCCCCC(=O)Nc1cncc(Nc2ncc(Cl)c(-c3cccc(-c4ccccc4)c3)n2)c1` (centres unmarked) [Compound 167, N-(5-((4-([1,1′-biphenyl]-3-yl)-5-chloropyrimidin-2-yl)amino)pyridin-3-yl)-10-(2-((1-(2,6-dioxopiperidin-3-yl)-2-oxo-1,2-dihydrobenzo[cd]indol-6-yl)oxy)acetamido)decanamide], the DC50 was < 500 nM.

For `O=C1CCC(Nc2ccc(N3CCC(CC(=O)N4CCC5(CC4)CCN(c4cncc(Nc6ncc(Cl)c(N7CCCCC7)n6)c4)C5=O)CC3)cc2)C(=O)N1` (centres unmarked) [Compound 168, 3-((4-(4-(2-(2-(5-((5-chloro-4-(piperidin-1-yl)pyrimidin-2-yl)amino)pyridin-3-yl)-1-oxo-2,8-diazaspiro[4.5]decan-8-yl)-2-oxoethyl)piperidin-1-yl)phenyl)amino)piperidine-2,6-dione], the DC50 was < 500 nM.

In the case of `O=C1CCC(Nc2ccc(C3CCN(CC(=O)N4CCC5(CC4)CCN(c4cncc(Nc6ncc(Cl)c(N7CCC[C@H](O)C7)n6)c4)C5=O)CC3)cc2)C(=O)N1` (stereo partly drawn) [Compound 169, 3-((4-(1-(2-(2-(5-((5-chloro-4-((S)-3-hydroxypiperidin-1-yl)pyrimidin-2-yl)amino)pyridin-3-yl)-1-oxo-2,8-diazaspiro[4.5]decan-8-yl)-2-oxoethyl)piperidin-4-yl)phenyl)amino)piperidine-2,6-dione], the DC50 is < 500 nM.

Turning to `O=C1CCC(Nc2ccc(C3CCN(CC(=O)N4CCC5(CC4)CCN(c4cncc(Nc6ncc(Cl)c(N7CCC[C@@H](O)C7)n6)c4)C5=O)CC3)cc2)C(=O)N1` (stereo partly drawn) [Compound 170, 3-((4-(1-(2-(2-(5-((5-chloro-4-((R)-3-hydroxypiperidin-1-yl)pyrimidin-2-yl)amino)pyridin-3-yl)-1-oxo-2,8-diazaspiro[4.5]decan-8-yl)-2-oxoethyl)piperidin-4-yl)phenyl)amino)piperidine-2,6-dione], the DC50 was < 500 nM.

For the molecule `O=C1CCC(Nc2ccc(C3CCN(CC(=O)N4CCC5(CC4)CCN(c4cncc(Nc6ncc(Cl)c(N7CCC[C@@H](C(F)(F)F)C7)n6)c4)C5=O)CC3)cc2)C(=O)N1` (stereo partly drawn) [Compound 171, 3-((4-(1-(2-(2-(5-((5-chloro-4-((R)-3-(trifluoromethyl)piperidin-1-yl)pyrimidin-2-yl)amino)pyridin-3-yl)-1-oxo-2,8-diazaspiro[4.5]decan-8-yl)-2-oxoethyl)piperidin-4-yl)phenyl)amino)piperidine-2,6-dione], the DC50 was < 500 nM.

On to `O=C1CCC(Nc2ccc(C3CCN(CC(=O)N4CCC5(CC4)CCN(c4cncc(Nc6ncc(Cl)c(N7CCC[C@H](C(F)(F)F)C7)n6)c4)C5=O)CC3)cc2)C(=O)N1` (stereo partly drawn) [Compound 172, 3-((4-(1-(2-(2-(5-((5-chloro-4-((S)-3-(trifluoromethyl)piperidin-1-yl)pyrimidin-2-yl)amino)pyridin-3-yl)-1-oxo-2,8-diazaspiro[4.5]decan-8-yl)-2-oxoethyl)piperidin-4-yl)phenyl)amino)piperidine-2,6-dione], for which the DC50 was < 500 nM.

As to `O=C1CCC(Nc2ccc(N3CCC(CCN4CCC5(CC4)CCN(c4cncc(Nc6ncc(Cl)c(N7CCCCC7)n6)c4)C5=O)CC3)cc2)C(=O)N1` (centres unmarked) [Compound 173, 3-((4-(4-(2-(2-(5-((5-chloro-4-(piperidin-1-yl)pyrimidin-2-yl)amino)pyridin-3-yl)-1-oxo-2,8-diazaspiro[4.5]decan-8-yl)ethyl)piperidin-1-yl)phenyl)amino)piperidine-2,6-dione], the DC50 is < 500 nM.

Consider `O=C1CCC(Nc2ccc(N3CCC(CN4CCC5(CC4)CCN(c4cncc(Nc6ncc(Cl)c(-c7ccc(Cl)cc7)n6)c4)C5=O)CC3)cc2)C(=O)N1` (centres unmarked) [Compound 174, 3-((4-(4-((2-(5-((5-chloro-4-(4-chlorophenyl)pyrimidin-2-yl)amino)pyridin-3-yl)-1-oxo-2,8-diazaspiro[4.5]decan-8-yl)methyl)piperidin-1-yl)phenyl)amino)piperidine-2,6-dione], for which the DC50 fell in the range of 1000 to 5000 nM.
